Results from ChEMBL document CHEMBL1142090, “Substrate competition studies using whole-cell accumulation assays with the major tripartite multidrug efflux pumps of Escherichia coli” (2007).
Calls of active or inactive are those of the source. No cut-off for these calls is given here.

Experiments:
Escherichia coli [1] = test: Antibacterial activity against Escherichia coli HNCE4 after 24 hrs; type: functional; conditions: HNCE4, 24 h
Escherichia coli [2] = test: Antibacterial activity against Escherichia coli AG102 with marR1 mutation after 24 hrs; type: functional; conditions: AG102, 24 h
Escherichia coli [3] = test: Antibacterial activity against Escherichia coli AG102MB after 24 hrs; type: functional
Escherichia coli [4] = test: Increase in [3H]testosterone uptake in Escherichia coli HNCE4 at 100 uM; type: functional, organism-based
Escherichia coli [5] = test: Increase in [3H]testosterone uptake in Escherichia coli AG102MB at 100 uM; type: functional, organism-based
Escherichia coli [6] = test: Increase in [3H]testosterone uptake in Escherichia coli AG102 at 100 uM; type: functional, organism-based
Escherichia coli [7] = test: Effect on modulation in uptake of [3H]progesterone in Escherichia coli AG102MB; type: functional, organism-based
Escherichia coli [8] = test: Effect on modulation in uptake of [3H]progesterone in Escherichia coli HNCE4; type: functional, organism-based
Escherichia coli [9] = test: Effect on modulation in uptake of [3H]hydrocortisone in Escherichia coli AG102 with marR1 mutation; type: functional, organism-based
Escherichia coli [10] = test: Effect on modulation in uptake of [3H]testosterone in Escherichia coli AG102 with marR1 mutation; type: functional, organism-based

SMILES	MIC (Escherichia coli [1])	MIC (Escherichia coli [2])	MIC (Escherichia coli [3])	further results
CC1(C)S[C@@H]2[C@H](NC(=O)[C@H](N)c3ccccc3)C(=O)N2[C@H]1C(=O)O [AMPICILLIN]	16 µg/mL	32 µg/mL	16 µg/mL	
N#CC(C#N)=NNc1cccc(Cl)c1 [CARBONYL CYANIDE M-CHLOROPHENYLHYDRAZONE]	16 µM	128 µM	32 µM	Activity (Escherichia coli [4]): Active; Activity (Escherichia coli [5]): Active; Activity (Escherichia coli [6]): Active
O=C(N[C@H](CO)[C@H](O)c1ccc([N+](=O)[O-])cc1)C(Cl)Cl [CHLORAMPHENICOL]	> 128 µg/mL	8 µg/mL	2 µg/mL	
C[C@H](CCC(=O)O)[C@H]1CC[C@H]2[C@@H]3[C@H](O)C[C@@H]4C[C@H](O)CC[C@]4(C)[C@H]3C[C@H](O)[C@]12C [CHOLIC ACID]	2000 µg/mL	16000 µg/mL	4000 µg/mL	
O=C(O)c1cn(C2CC2)c2cc(N3CCNCC3)c(F)cc2c1=O [CIPROFLOXACIN]	0.0625 µg/mL	> 0.25 µg/mL	0.0625 µg/mL	Activity (Escherichia coli [7]): Active; Activity (Escherichia coli [8]): Active
CC[C@H]1OC(=O)[C@H](C)[C@@H](O[C@H]2C[C@@](C)(OC)[C@@H](O)[C@H](C)O2)[C@H](C)[C@@H](O[C@@H]2O[C@H](C)C[C@H](N(C)C)[C@H]2O)[C@](C)(O)C[C@@H](C)[C@@H]2N[C@@H](COCCOC)O[C@H]([C@H]2C)[C@]1(C)O [DIRITHROMYCIN]	16 µg/mL	256 µg/mL	16 µg/mL	
CC[C@H]1OC(=O)[C@H](C)[C@@H](O[C@H]2C[C@@](C)(OC)[C@@H](O)[C@H](C)O2)[C@H](C)[C@@H](O[C@@H]2O[C@H](C)C[C@H](N(C)C)[C@H]2O)[C@](C)(O)C[C@@H](C)C(=O)[C@H](C)[C@@H](O)[C@]1(C)O [ERYTHROMYCIN]	8 µg/mL	128 µg/mL	4 µg/mL	Activity (Escherichia coli [7]): Active; Activity (Escherichia coli [8]): Active
CC(=O)O[C@H]1C[C@@]2(C)[C@@H](C[C@@H](O)[C@H]3[C@@]4(C)CC[C@@H](O)[C@@H](C)[C@@H]4CC[C@@]32C)/C1=C(\CCC=C(C)C)C(=O)O [FUSIDIC ACID]	128 µg/mL	> 512 µg/mL	16 µg/mL	
CN(C)c1ccc(C(=C2C=CC(=[N+](C)C)C=C2)c2ccc(N(C)C)cc2)cc1.[Cl-] [GENTIAN VIOLET]	8 µg/mL	32 µg/mL	0.5 µg/mL	
CC[n+]1c(-c2ccccc2)c2cc(N)ccc2c2ccc(N)cc21.[Br-] [HOMIDIUM BROMIDE]	32 µg/mL	256 µg/mL	4 µg/mL	
CO[C@@H]1[C@@H](O[C@@H]2O[C@H](C)[C@@H](O[C@H]3C[C@@](C)(O)[C@@H](OC(=O)CC(C)C)[C@H](C)O3)[C@H](N(C)C)[C@H]2O)[C@@H](CC=O)C[C@@H](C)[C@@H](O)/C=C/C=C/C[C@@H](C)OC(=O)C[C@H]1OC(C)=O [JOSAMYCIN]	4 µg/mL	> 512 µg/mL	32 µg/mL	
NC[C@H]1O[C@H](O[C@H]2[C@H](O)[C@@H](O[C@H]3O[C@H](CO)[C@@H](O)[C@H](N)[C@H]3O)[C@H](N)C[C@@H]2N)[C@H](O)[C@@H](O)[C@@H]1O [KANAMYCIN]	> 512 µg/mL	8 µg/mL	> 512 µg/mL	
CO[C@@H]1[C@@H](OC(N)=O)[C@@H](O)[C@H](Oc2ccc3c(O)c(NC(=O)c4ccc(O)c(CC=C(C)C)c4)c(=O)oc3c2C)OC1(C)C [NOVOBIOCIN]	4 µg/mL	512 µg/mL	4 µg/mL	
CO[C@H]1C[C@H](O[C@H]2[C@H](C)[C@@H](O[C@@H]3O[C@H](C)C[C@H](N(C)C)[C@H]3O)[C@@H](C)C[C@@]3(CO3)C(=O)[C@H](C)[C@@H](O)[C@@H](C)[C@@H](C)OC(=O)[C@@H]2C)O[C@@H](C)[C@@H]1O [OLEANDOMYCIN]	256 µg/mL	> 512 µg/mL	128 µg/mL	
COC(=O)[C@H]1[C@H]2C[C@@H]3c4[nH]c5cc(OC)ccc5c4CCN3C[C@H]2C[C@@H](OC(=O)c2cc(OC)c(OC)c(OC)c2)[C@@H]1OC [RESERPINE]	128 µg/mL	256 µg/mL	128 µg/mL	
CC[C@H]1OC(=O)[C@H](C)[C@@H](O[C@H]2C[C@@](C)(OC)[C@@H](O)[C@H](C)O2)[C@H](C)[C@@H](O[C@@H]2O[C@H](C)C[C@H](N(C)C)[C@H]2O)[C@](C)(O)C[C@@H](C)/C(=N\OCOCCOC)[C@H](C)[C@@H](O)[C@]1(C)O [ROXITHROMYCIN]	128 µg/mL	512 µg/mL	64 µg/mL	
CCCCCCCCCCCCOS(=O)(=O)[O-].[Na+] [SODIUM LAURYL SULFATE]	125 µg/mL	1000 µg/mL	62.5 µg/mL	Activity (Escherichia coli [9]): Active; Activity (Escherichia coli [10]): Active
CN(C)[C@@H]1C(O)=C(C(N)=O)C(=O)[C@@]2(O)C(O)=C3C(=O)c4c(O)cccc4[C@@](C)(O)[C@H]3C[C@@H]12 [TETRACYCLINE]	2 µg/mL	8 µg/mL	2 µg/mL	
CC[C@H]1OC(=O)C[C@@H](O)[C@H](C)[C@@H](O[C@@H]2O[C@H](C)[C@@H](O[C@H]3C[C@@](C)(O)[C@@H](O)[C@H](C)O3)[C@H](N(C)C)[C@H]2O)[C@@H](CC=O)C[C@@H](C)C(=O)/C=C/C(C)=C/[C@@H]1CO[C@@H]1O[C@H](C)[C@@H](O)[C@@H](OC)[C@H]1OC [TYLOSIN]	64 µg/mL	> 512 µg/mL	128 µg/mL	
